One data set has as its system DENV-2 virus. The experiment in a line: DENV antiviral assay, DENV-Luc replication in A549 cells (FIGS. 8 and 9). The format is cell-based, dengue serotype 2 (DENV-2) strain 16681. The method, then:
DENV-Luc reporter virus generation: The design of the pDENV-Luc infectious clone derived from dengue serotype 2 (DENV-2) strain 16681 was described in detail by Marceau et al (Marceau et al., 2016). The plasmid was linearized with Xbal and in vitro transcribed into the genomic RNA of DENV-Luc virus using the T7 Megascript Kit (Ambion) in the presence of m7G(5′)ppp(5′)G RNA Cap Structure Analog (NEB). 5 μg DENV-Luc RNA was electroporated into 2×10^6 Vero cells. The transfected cells were resuspended with Dulbecco's modified Eagle's medium (DMEM; Invitrogen) with 10% FBS and 100 U/ml penicillin-streptomycin and transferred into a T-175 flask incubated at 37° C. with 5% CO2. Supernatants were collected and replenished with fresh medium every 24 h from day 17 to 24 post-transfection, pooled together, clarified by centrifugation and stored in aliquots at −80° C. The amount of infectious DENV-Luc virus in the stock was titrated using the TCID50 assay and calculated by the Spearman & Kärber algorithm as described previously (Hierholzer and Killington, 1996).
DENV antiviral assays (For FIGS. 8 and 9): A549 cells were plated overnight at 5,000 cells/well in 96-well plates in complete DMEM and incubated for 24 h at 37° C. Cells were then treated with pyrimidine de novo synthesis inhibitors, and/or salvage inhibitors, and/or R1479 in DMEM supplemented with 20 μM uridine. Four hours after drug addition, cells were infected with DENV-2 virus at a MOI=0.1. After 72 h, DENV-Luc replication was monitored by the production of Renilla luciferase, which was measured using the Renilla-Glo Luciferase Assay System (Promega) according to the specifications of the manufacturer. For the accompanying cell viability assay, A549 cells were seeded at 5,000 cells/well in 96-well plates in complete DMEM and incubated for 24 h at 37° C. Cell were then treated with pyrimidine de novo synthesis inhibitors, and/or salvage inhibitors, and/or R1479 in DMEM supplemented with 20 μM uridine. Following 48 h treatment, cell viability was monitored by ATP levels, which was measured using the CellTiter-Glo Luciferase Assay System (Promega) according to the specifications of the manufacturer.

Another data set has as its target T1, recombinant human UCK2 (Homo sapiens, UniProt Q9BZX2).
T1 construct: 6xHis (C); made in house; host or cells: E. coli BL21(DE3)
T1 sequence (Q9BZX2 1-261): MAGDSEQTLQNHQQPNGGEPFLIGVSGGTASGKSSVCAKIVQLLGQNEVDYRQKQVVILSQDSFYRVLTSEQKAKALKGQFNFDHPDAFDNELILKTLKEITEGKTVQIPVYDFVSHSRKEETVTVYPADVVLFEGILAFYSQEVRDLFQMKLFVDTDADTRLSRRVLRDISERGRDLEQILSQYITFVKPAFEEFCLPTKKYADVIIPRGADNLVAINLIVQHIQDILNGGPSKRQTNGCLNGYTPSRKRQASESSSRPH
The experiment in a line: In vitro enzyme activity assay with recombinant human UCK2 (PK/LDH-coupled, UV 340 nm). The conditions noted are these: for UCK2 substrate or not (ATP consumption): 250 μM analog in the presence of 50 μM uridine. The format is biochemical. The text has this: (§1) In order to guide our SAR studies, we developed an enzymatic assay to evaluate the inhibitory effect of each CPU analog against recombinant human UCK2, which was expressed and purified in E. coli. A continuous assay system was optimized by coupling UCK2 activity to the pyruvate kinase (PK) reaction, which in turn was coupled to lactate dehydrogenase (LDH). Overall reaction progress was continuously monitored by detecting the UV absorption change at 340 nm, which was correlated with the ATP consumption by UCK2. The effect of 250 μM of each CPU analog on UCK2 activity was evaluated in the presence of 50 μM uridine. […] We then individually measured the steady state kinetic parameters of UCK2 using uridine, CPU and 5-F-CPU as substrates. Their KM values were 86, 25, and 41 μM, and their kcat/KM values were 2.6×10^5, 1.5×10^5, and 7.3×10^4 s^−1 M^−1 (FIG. 5B).
(§2) Cloning, expression and purification of recombinant human UCK2 and CMPK1: Uridine cytidine kinase 2 (UCK2) was cloned into the pET-21a(+) vector using Ndel and Notl as restriction sites. […] The resulting plasmid was transformed into E. coli BL21(DE3) cells by electroporation, recovered in SOC at 37° C. for 1 h and plated onto LB agar plates with kanamycin overnight at 37° C. A single, isolated colony was inoculated into 30 mL LB supplemented with 50 μg/mL kanamycin and grown at 37° C. with shaking for 15 h. The next day, these cells were used to inoculate 1 L autoclaved LB with 50 μg/mL kanamycin. The flask was shaken at 37° C. When an optical density (OD600) of 0.7 was reached, protein expression was induced with 0.5 mM isopropyl β-D-1-thiogalactopyranoside (IPTG). The temperature was changed to 18° C. and flasks were shaken for an additional 15 h. The cell pellets were collected by spinning the media at 5000 rpm for 10 min. The pellets obtained were frozen by liquid nitrogen and stored in −80° C. for protein purification. Cell pellets were thawed and resuspended in lysis buffer containing Tris (40 mM, pH 7.5), NaCl (10 mM), imidazole (10 mM), DTT (1 mM). Cells were lysed by sonication and centrifuged at 25,000 g for 1 h. The supernatant was incubated with a slurry of Ni-NTA resin for 1 h at 4° C. and loaded onto a column. The nickel column wash buffer was Tris (40 mM, pH 7.5), NaCl (10 mM), DTT (1 mM) and each wash step contained increasing concentrations of imidazole (10, 50, or 250 mM). After SDS-PAGE confirmation of the protein fractions, protein was further purified using fast protein liquid chromatography (FPLC) using buffer A (50 mM Tris-HCl pH 8, 1 mM dithiothreitol (DTT), 10% glycerol) and elution buffer B (50 mM Tris-HCl pH 8, 1mM dithiothreitol (DTT), 10% glycerol with 500 mM NaCl) with changing gradient over a 20 minute from 2% to 100% Buffer B. FPLC eluents containing the protein was concentrated using Am icon centrifugal filter with 3K cut-off and the enzyme was stored in storage buffer (50 mM Tris-HCl pH 7.5, 10% glycerol). Human cytidine monophosphate kinase 1 (CMPK1) was purified as previously described (Deans et al., 2016).
(§3) In vitro enzyme activity assays with recombinant human UCK2: To continuously monitor reaction progress spectrophotometrically, ATP hydrolysis was coupled to NADH oxidation via pyruvate kinase (PK) and lactate dehydrogenase (LDH). Reactions were conducted at room temperature in 100 μL in 96-well plates (Greiner Bio-One, UV-Star, Half Area). Mixtures contained 20 mM HEPES (pH 7.2), 100 mM KCl, 2 mM MgCl2, 300 μM ATP, 0-500 μM uridine, 0-500 μM CPU analogs, 10 nM UCK2, 1 mM phosphoenolpyruvate, 500 μM NADH and 20 units/mL of PK and LDH. Progress was monitored in the linear region using a Biotek Synergy HT and kinetic and inhibition constants were determined using GraphPad Prism 7 (GraphPad Software).

Substrate in data set [1]: O=c1ccn([C@@H]2C=C(CO)[C@@H](O)[C@H]2O)c(=O)[nH]1
The description is as above. The format is biochemical. The conditions noted are these: other: steady state kinetic parameters of UCK2 with the compound as substrate.
Source text: as §1, §2, §3

Substrate in data set [2]: O=c1[nH]c(=O)n([C@@H]2C=C(CO)[C@@H](O)[C@H]2O)cc1F
The data set is described as above. In kind it is biochemical. The conditions noted are these: other: steady state kinetic parameters of UCK2 with the compound as substrate.
Source text: as §1, §2, §3

Substrate in data set [3]: O=c1ccn([C@@H]2O[C@H](CO)[C@@H](O)[C@H]2O)c(=O)[nH]1
Described as above. In kind it is biochemical. The conditions noted are these: other: steady state kinetic parameters of UCK2 with the compound as substrate.
Source text: as §1, §2, §3

Experimental findings from patent US20220280513A1, “ENHANCING THE ANTIVIRAL EFFICACY OF RNA VIRUS INHIBITION BY COMBINATION WITH MODULATORS OF PYRIMIDINE METABOLISM” (The Board of Trustees of the Leland Stanford Junior …, priority 2019, published 2022) are described below.

The term EC50 denotes the concentration at which the effect is half-maximal. The Ki is a measure of affinity in units of concentration, obtained from inhibition or displacement. A word on the Km: it is the substrate concentration at which the rate is half of its maximum. The kcat/Km is the second-order rate constant that governs catalysis at low substrate concentration.

Like-named read-outs stand apart in the source and are kept apart here. Some results are limits rather than exact numbers.

On to `[N-]=[N+]=N[C@]1(CO)O[C@@H](n2ccc(N)nc2=O)[C@H](O)[C@@H]1O` [R1479, 4′-azidocytidine], for which the “influence of GSK983 alone on the antiviral activity of R1479” value in the data set with DENV-2 virus (1 μM GSK983 added, no CPU, 20 μM uridine) is recorded as “negligible influence”. The EC50 was ~35 µM in the data set on DENV-2 virus (Dengue virus, DENV2, A549, 20 μM uridine, without GSK983 and CPU, read-out: EC50, inhibition of dengue virus replication, R1479 as single agent); ≤ 8 µM with DENV-2 virus (Dengue virus, DENV2, A549, in the presence of 250 μM CPU and 1 μM GSK983, 20 μM uridine, read-out: EC50 of R1479 in combination); ~8 µM in the data set with DENV-2 virus (in the presence of 250 μM CPU and 1 μM GSK983, 20 μM uridine, read-out: EC50 of R1479 in combination).

In the case of `CC1=C[C@@H](n2ccc(=O)[nH]c2=O)[C@H](O)[C@@H]1O` [5′-deoxy-CPU, 1-((1R,4R,5S)-4,5-dihydroxy-3-methylcyclopent-2-en-1-yl)pyrimidine-2,4(1H,3H)-dione], at recombinant human UCK2, the “UCK2 substrate or not (ATP consumption)” value is listed as “inhibitors but not substrates”. At recombinant human UCK2 (competitive inhibitors of UCK2, Lineweaver-Burk analysis), the Ki is 230 µM.

For `O=c1[nH]c(=O)n([C@@H]2C=C(CO)[C@@H](O)[C@H]2O)cc1F` [5-F-CPU, 1-((1R,4R,5S)-4,5-dihydroxy-3-(hydroxymethyl)cyclopent-2-en-1-yl)-5-fluoropyrimidine-2,4(1H,3H)-dione], at recombinant human UCK2, the “UCK2 substrate or not (ATP consumption)” value is given as “substrates of UCK2”. The “rate of UMP synthesis” value on recombinant human UCK2 (added to assay mixture containing UCK2, uridine (50 μM) and ATP) was “dose-dependent decrease”.

B1: recombinant human UCK2 (Homo sapiens) (protein)
chain: MAGDSEQTLQNHQQPNGGEPFLIGVSGGTASGKSSVCAKIVQLLGQNEVDYRQKQVVILSQDSFYRVLTSEQKAKALKGQFNFDHPDAFDNELILKTLKEITEGKTVQIPVYDFVSHSRKEETVTVYPADVVLFEGILAFYSQEVRDLFQMKLFVDTDADTRLSRRVLRDISERGRDLEQILSQYITFVKPAFEEFCLPTKKYADVIIPRGADNLVAINLIVQHIQDILNGGPSKRQTNGCLNGYTPSRKRQASESSSRPH
notes: 6xHis (C); made in house; host or cells: E. coli BL21(DE3)
As for B1, the Km in data set [1] was 25 µM; in data set [2], 41 µM; in data set [3], 86 µM. The kcat/Km in data set [1] came out at 150000 s⁻¹ M⁻¹; in data set [2], 73000 s⁻¹ M⁻¹; in data set [3], 260000 s⁻¹ M⁻¹.
